The structures appear in SMILES notation.

For seven compounds, inhibition and IC50 results are on record in ChEMBL document CHEMBL1127003, “N-oleoyl-1,2,3,4-tetrahydroisoquinolines as conformationally restricted inhibitors of acyl-CoA:cholesterol acyl transferase (ACAT)” (Bioorg Med Chem Lett, 1993).

For experiment [1], the target named is T1, Sterol O-acyltransferase 1 (Rattus norvegicus) (UniProt O70536).
T1 sequence (whole entry): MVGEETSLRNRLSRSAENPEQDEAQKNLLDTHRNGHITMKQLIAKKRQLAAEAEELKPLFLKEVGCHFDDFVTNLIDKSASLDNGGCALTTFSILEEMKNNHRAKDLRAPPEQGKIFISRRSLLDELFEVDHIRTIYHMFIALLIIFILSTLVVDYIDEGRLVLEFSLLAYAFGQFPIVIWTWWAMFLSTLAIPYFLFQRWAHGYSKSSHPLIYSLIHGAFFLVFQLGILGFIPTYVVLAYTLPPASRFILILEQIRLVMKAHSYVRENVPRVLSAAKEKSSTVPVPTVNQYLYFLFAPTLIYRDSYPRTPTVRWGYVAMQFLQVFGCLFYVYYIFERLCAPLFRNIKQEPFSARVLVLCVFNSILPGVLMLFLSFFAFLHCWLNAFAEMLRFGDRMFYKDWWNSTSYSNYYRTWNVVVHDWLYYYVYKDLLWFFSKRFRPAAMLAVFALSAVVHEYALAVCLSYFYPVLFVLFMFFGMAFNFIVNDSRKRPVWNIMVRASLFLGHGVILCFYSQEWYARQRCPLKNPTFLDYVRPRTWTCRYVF
As to the kind of experiment: Percent inhibition of Acyl coenzyme A:cholesterol acyltransferase at a concentration of 25(micro M) was evaluated in rat liver microsomes using ACAT microsomal assay. The following applies: Microsome. Background: Liver microsomes are a subcellular fraction often used to study metabolism.

Experiment [2] addresses T2, Sterol O-acyltransferase 1 (Rattus norvegicus, UniProt O70536).
T2 sequence (O70536 whole entry): T1 sequence (whole entry)
As to the kind of experiment: Inhibitory activity was evaluated in rat liver microsomes using Acyl coenzyme A:cholesterol acyltransferase microsomal assay. Further details: species or system Microsome.

Regarding `CCCCCCCC/C=C\CCCCCCCC(=O)N1CCc2cc(OC)c(OC)cc2C1Cc1ccc(OC)c(OC)c1` (stereo unspecified), the inhibition (usually how much of the control response was suppressed) in experiment [1] turned out to be 91%. In experiment [2], half-maximal inhibition (IC50) required 2.7 µM.
Take `CCCCCCCC/C=C\CCCCCCCC(=O)N1Cc2cc(OC)c(OC)cc2CC1c1ccc(OC)c(OC)c1` (stereo unspecified): in experiment [1], the inhibition was determined as 67%.
`CCCCCCCC/C=C\CCCCCCCC(=O)N1Cc2cc(OC)c(OC)cc2CC1c1ccccc1` (stereo unspecified) registered an inhibition in experiment [1] of 86%. Besides, in experiment [2], the IC50 (in general, the concentration that inhibits the measured activity by half) worked out at 3.8 µM.
`CCCCCCCC/C=C\CCCCCCCC(=O)NC(Cc1ccccc1)c1ccccc1` (stereo unspecified): the inhibition in experiment [1] was determined as 87%. The same compound had an IC50 in experiment [2] of 0.15 µM.
With `CCCCCCCC/C=C\CCCCCCCC(=O)N1CCc2ccccc2C1Cc1ccccc1` (stereo unspecified), the inhibition in experiment [1] came to 81%. The same compound returned a concentration for half-maximal inhibition (IC50) in experiment [2] of 4.8 µM.
With `CCCCCCCC/C=C\CCCCCCCC(=O)N1CCc2cc(OC)c(OC)cc2C1Cc1ccccc1` (stereo unspecified), the inhibition in experiment [1] is 63%.
Compound `CCCCCCCC/C=C\CCCCCCCC(=O)N1CCc2cc(O)c(O)cc2C1Cc1ccccc1` (stereo unspecified) gave an inhibition in experiment [1] of 73%.
